Laboratory results published in patent US11884650B2, “Substituted heterocyclic compounds” (BRISTOL-MYERS SQUIBB COMPANY, priority 2021, dated 2024).

Assays:
[1] = Brain Penetration In Vivo Assay; design: species or system C57BL6 wild-type mice; conditions: C57BL6, brain and plasma, 10 mg/kg, mouse, 10 mpk, po, read-out: Ratio of exposure in brain to plasma
Experimental: Brain Penetration In Vivo Assay
A pharmacokinetic study was performed using C57BL6 wild-type mice (n=3 per experiment) to determine brain and plasma exposure of compounds of the invention. The compound was administered orally in a solution of 5% ETHANOL; 90% PEG 300; 5% TPGS at 5 […] for a final concentration. of 10 mg/kg. Mice were euthanized 1 hour post-dose and plasma and brain were collected and frozen for analysis. Brain tissues were homogenized in a 1:1 volume of blank C57BL6 mouse plasma. Concentrations of the compound in plasma and brain homogenate were determined by LC-MS analysis.

in vitro = conditions: human, Caco-2, pH 7.4
[2] = system: IFNα-induced pSTAT5 in human whole blood (CD3 positive population); test: IFNα-Induced STAT Phosphorylation in Human Whole Blood; assay type: cell-based; conditions: 1 h incubation with compound, 1000 U/mL IFNα A/D for 15 min, read-out: Human Whole blood IFNa pSTAT5 IC50
Experimental: IFNα-Induced STAT Phosphorylation in Human Whole Blood
After an hour long incubation with compound, human whole blood (drawn with ACD-A as anticoagulant) was stimulated with 1000 U/mL recombinant human IFNα A/D (R&D Systems 11200-2) for 15 min. The stimulation was stopped by adding Fix/Lyse buffer (BD 558049). Cells were stained with a CD3 FITC antibody (BD 555916), washed, and permeabilized on ice using Perm III buffer (BD 558050). Cells were then stained with an Alexa-Fluor 647 pSTAT5 (pY694) antibody (BD 612599) for 60 min prior to analysis on the iQue Plus. The amount of pSTAT5 expression was quantitated by median fluorescence intensity after gating on the CD3 positive population.

Caco-2 cells = conditions: human, Caco-2, 2 h, 3 μM, pH 7.4

Kp at 1 h [1] | Papp A→B at 2 h, 3 μM (in vitro) [×10⁻⁶ cm/s] | efflux ratio at 2 h, 3 μM (in vitro) | IC50 [2] [nM] | Compound | Caco-2 AB (Caco-2 cells) [nm/s]
0.14 |  |  |  | CCC(=O)c1cnc(NC(=O)C2CC2)cc1Nc1nccc(-c2ncn(C)n2)c1OC [A, reference compound] | 
0.05 |  |  |  | CCC(=O)c1cnc(NC(=O)C2CC2)cc1Nc1cccc(-c2ncn(C)n2)c1OC [B, reference compound] | 
3.1 | 66.3 | 0.1 | 37 | CCC(=O)c1cnc(NC(=O)C2CC2)cc1Nc1nccc(-c2cnn(C)n2)c1OC [Example 1, N-(4-((3-methoxy-4-(2-methyl-2H-1,2,3-triazol-4-yl)pyridin-2-yl)amino)-5-propionylpyridin-2-yl)cyclopropanecarboxamide] | 
 | 18 | 0.2 | 400 | CCC(=O)c1cnc(NC(=O)C2CC2)cc1Nc1nccc(-c2cnn(C3CC3)n2)c1OC [Example 2, N-(4-((3-methoxy-4-(2-cyclopropyl-2H-1,2,3-triazol-4-yl)pyridin-2-yl)amino)-5-propionylpyridin-2-yl)cyclopropanecarboxamide] | 
3 | 18.3 | 0.5 | 460 | CCC(=O)c1cnc(NC(=O)C2CC2)cc1Nc1cccc(-c2cnn(C)n2)c1OC [Example 3, N-(4-((2-methoxy-3-(2-methyl-2H-1,2,3-triazol-4-yl)phenyl)amino)-5-propionylpyridin-2-yl)cyclopropanecarboxamide] | 
 | 54.5 | 0.4 | 280 | CCC(=O)c1cnc(NC(=O)C2CC2)cc1Nc1ccc(F)c(-c2cnn(C)n2)c1OC [Example 4, N-(4-((4-fluoro-2-methoxy-3-(2-methyl-2H-1,2,3-triazol-4-yl)phenyl)amino)-5-propionylpyridin-2-yl)cyclopropanecarboxamide] | 

Compound | Kp at 1 h [1] | Papp A→B at 2 h, 3 μM (in vitro) [×10⁻⁶ cm/s] | efflux ratio at 2 h, 3 μM (in vitro) | IC50 [2] [nM] | Caco-2 AB (Caco-2 cells) [nm/s]
N-(4-((3-fluoro-2-methoxy-3-(2-methyl-2H-1,2,3-triazol-4-yl)phenyl)amino)-5-propionylpyridin-2-yl)cyclopropanecarboxamide [Example 5] |  |  |  | 710 | 258
N-(4-((3-methyl-2-methoxy-3-(2-methyl-2H-1,2,3-triazol-4-yl)phenyl)amino)-5-propionylpyridin-2-yl)cyclopropanecarboxamide [Example 6] |  |  |  | 770 | 152
